Experimental data published in paper PMC6470885 (Molecules, 2019).
Several values for one entry are separate records, joined by “and”; a condition that tells them apart may be missing. Equal entries are not always repeated. Non-standard residues stand in square brackets, D forms with d. Residues, ends and D or L forms follow the SMILES beside them. *: point of attachment. Palmitoyl = CCCCCCCCCCCCCCCC(=O)*; PEG4 = NCCOCCOCCOCCOCCC(=O)O

Experiments:
HIV-1IIIB (X4 virus) [1] = assay type: cell-based; conditions: ratio of IC50s
Protocol: (§3) Inhibitory activities of peptides on infection by HIV-1 X4 strain IIIB, R5 strain Bal, and T20-, T2635-, HP23-resistant strains were determined as previously described [42]. For each well of a 96-well plate, 50 μL of a peptide were mixed with 50 μL of 100 × TCID50 (50% tissue culture infective doses) of HIV-1 live virus and incubated at 37 °C for 30 min. Afterwards, 2 × 10^4 MT-2 (for X4 virus) or CEMx174 5.25 M7 cells (for R5 virus) were added. After overnight culture, the supernatant was replaced with fresh RPMI-1640 medium containing 10% fetal bovine serum (FBS). After further culture at 37 °C for three days, 50 μL of the culture medium were collected and mixed with equal volume of 5% (v/v) Triton X-100. The p24 antigen, which represents HIV-1 quantity, was detected by ELISA. Briefly, the collected mixtures were added to a plate coated with anti-HIV Immune Globulin (HIVIG) from the NIH AIDS Reagent Program. Anti-p24 mAb 183, rabbit anti-mouse IgG-HRP (Dako, Glostrup, Denmark) and substrate 3,3,5,5-TMB (Sigma-Aldrich, New York, NY) were added and washed away sequentially. The absorbance at 450 nm (A450) was determined by a Multi-Detection Microplate Reader (Ultra 384, Tecan, Tokyo, Japan). IC50s were calculated using Calcusyn software (Biosoft, Ferguson, MO), and the lines of best fit were drawn using GraphPad Prism 8 software (La Jolla, CA).

HIV-1Bal (R5 virus) = assay type: cell-based; conditions: ratio of IC50s
Protocol: as §3

[2] = tested on: cell-cell fusion between H9/IIIB cells and MT-2 cells; test: HIV-1-mediated cell-cell fusion (dye transfer assay); assay type: cell-based; conditions: ratio of IC50s
Protocol: A dye transfer assay was performed to detect HIV-1 Env-mediated cell-cell fusion as described previously. Briefly, for each well of a 96-well plate, 2 × 10^3 H9/IIIB cells labeled with the fluorescent reagent Calcein AM (Molecular Probes, Inc., Eugene, Oregon) were incubated with a CHR-peptide at 37 °C for 30 min. Afterwards, 10^4 MT-2 cells were added and incubated at 37 °C for 2 h. The fused and unfused Calcein-labeled H9/IIIB cells were counted under an inverted fluorescence microscope (Zeiss, Oberkochen, Germany). The IC50 values were calculated by using the Calcusyn computer program (Biosoft, Ferguson, MO).

HIV-1IIIB (X4 virus) [3] = test: Virus wash and nonwash assay; assay type: cell-based; conditions: HIV-1IIIB incubated with peptide 4 °C 30 min, unbound peptide washed away, then MT-2 cells
Protocol: To determine whether a peptide binds with the viral particle in order to execute its anti-HIV-1 activity, virus wash and nonwash assays were performed as previously described. Briefly, HIV-1IIIB (50 × TCID50) were incubated with a peptide at 4 °C for 30 min, followed by washes of the pretreated viral particles to remove the unbound peptide (control: without washes) before being added to 2 × 10^4 MT-2 cells. After culture at 37 °C overnight, the supernatant was replaced by fresh RPMI-1640 medium containing 10% FBS. The inhibitory activity of the virus-bound peptide in the wash group and free peptide in the nonwash group was determined as described above.

HIV-1IIIB = test: Ex vivo anti-HIV-1 activity of sera of peptide-treated mice; assay type: in vivo; conditions: ICR mice, 5 mg/kg i.p.; serum tested against HIV-1IIIB
Protocol: (§1) Evaluation of ex vivo anti-HIV-1 activity of a peptide in a mouse model was performed as described recently. This mouse experiment was conducted under ethical guidelines and approved by the Institutional Laboratory Animal Care and Use Committee at Fudan University (20160927-2). ICR mice used for this study were bred at the Department of Laboratory Animal Science of Fudan University. Briefly, 5 mg/kg of a peptide were intraperitoneally (i.p.) injected into four female ICR mice (8 weeks). […] Anti-HIV-1 activities of the mouse serum samples were determined in the same way as described above. The highest dilution-fold of the serum causing 50% inhibition of HIV-1IIIB infection (IC50) was calculated.

[4] = Serum half-life and pharmacokinetic parameters in mice
Protocol: as §1

MT-2 cells = test: Cytotoxicity, CCK8 assay, MT-2 cells
Protocol: (§2) A peptide at graded concentration was incubated with 2 × 10^5/mL cells at 37 °C for 3 days before adding 10 μL of CCK8 reagent (Sigma-Aldrich). After another round of incubation at 37 °C for 2 h, A450 was measured with the Multi-Detection Microplate Reader. Cell viability was calculated by […].

M7 cells = test: Cytotoxicity, CCK8 assay, M7 cells
Protocol: as §2

[5] = tested on: HIV-1 mutants resistant to T20, T2635, or HP23; assay type: cell-based; conditions: ratio of IC50s
Protocol: (§4) For each well of a 96-well plate, 50 μL of a peptide were mixed with 50 μL of 100 × TCID50 (50% tissue culture infective doses) of HIV-1 live virus and incubated at 37 °C for 30 min. Afterwards, 2 × 10^4 MT-2 (for X4 virus) or CEMx174 5.25 M7 cells (for R5 virus) were added. After overnight culture, the supernatant was replaced with fresh RPMI-1640 medium containing 10% fetal bovine serum (FBS). After further culture at 37 °C for three days, 50 μL of the culture medium were collected and mixed with equal volume of 5% (v/v) Triton X-100. The p24 antigen, which represents HIV-1 quantity, was detected by ELISA. Briefly, the collected mixtures were added to a plate coated with anti-HIV Immune Globulin (HIVIG) from the NIH AIDS Reagent Program. Anti-p24 mAb 183, rabbit anti-mouse IgG-HRP (Dako, Glostrup, Denmark) and substrate 3,3,5,5-TMB (Sigma-Aldrich, New York, NY) were added and washed away sequentially. The absorbance at 450 nm (A450) was determined by a Multi-Detection Microplate Reader (Ultra 384, Tecan, Tokyo, Japan). IC50s were calculated using Calcusyn software (Biosoft, Ferguson, MO), and the lines of best fit were drawn using GraphPad Prism 8 software (La Jolla, CA).

[6] = tested on: HIV-1 T20-resistant strains; conditions: ratio of IC50s
Protocol: as §3

[7] = tested on: HIV-1 T2635-resistant strains; conditions: ratio of IC50s
Protocol: as §4

[8] = tested on: HIV-1 HP23-resistant strains; conditions: ratio of IC50s
Protocol: as §4

[9] = Mice (i.p., n = 3), 5 mg/kg, concentration estimated from serum anti-HIV-1 activity, MODFIT
[10] = concentrations as high as 8 μM, 3 days, 37 °C, CCK8

## CCCCCCCCCCCCCCCC(=O)NCCCC[C@H](NC(=O)CCOCCOCCOCCOCCNC(=O)CNC(=O)[C@H](CO)NC(=O)CNC(=O)[C@H](CC(C)C)NC(=O)[C@H](CC(=O)O)NC(=O)[C@@H](NC(=O)[C@H](CCC(N)=O)NC(=O)[C@H](CCC(N)=O)NC(=O)[C@H](CC(N)=O)NC(=O)[C@H](CCC(N)=O)NC(=O)[C@H](CO)NC(=O)[C@H](CCCCN)NC(=O)[C@H](CCCCN)NC(=O)[C@H](CC(C)C)NC(=O)[C@@H](NC(=O)[C@H](CCC(=O)O)NC(=O)[C@H](CCC(=O)O)NC(=O)[C@@H](NC(=O)[C@H](CCCCN)NC(=O)[C@H](CCCCN)NC(=O)[C@@H](NC(=O)[C@H](Cc1ccc(O)cc1)NC(=O)[C@H](CCC(=O)O)NC(=O)[C@H](CCC(=O)O)NC(=O)[C@@H](NC(=O)[C@H](CCCCN)NC(=O)[C@H](CCCCN)NC(=O)[C@H](CCC(=O)O)NC(=O)[C@H](Cc1c[nH]c2ccccc12)NC(=O)[C@H](CCC(=O)O)NC(=O)[C@H](CCC(=O)O)NC(=O)[C@H](Cc1c[nH]c2ccccc12)NC(=O)[C@@H](NC(=O)[C@H](CCSC)NC(=O)[C@@H](N)CCC(=O)O)[C@@H](C)O)[C@@H](C)CC)[C@@H](C)CC)[C@@H](C)CC)[C@@H](C)CC)[C@@H](C)CC)C(=O)O [YIK-C16] (H-EMTWEEWEKKIEEYIKKIEEILKKSQNQQIDLGSG[PEG4]K(Palmitoyl)-OH; N-terminus and C-terminus assumed)
HIV-1IIIB (X4 virus) [1]
  fold more potent than YIK against HIV-1IIIB infection: 3.6 fold
HIV-1Bal (R5 virus)
  fold more effective than HP23-E6-IDL against HIV-1Bal infection: 13.3 fold and ~13 fold
  fold more effective than YIK against HIV-1Bal infection: 10.5 fold
[2]
  potency relative to YIK and HP23-E6-IDL in inhibiting HIV-1-mediated cell-cell fusion: about two-fold more potent
HIV-1IIIB (X4 virus) [3]
  inhibition of HIV-1IIIB infection, virus preincubated with peptide, washed: could inhibit HIV-1IIIB infection when the unbound peptide was washed away
HIV-1IIIB
  maximum inhibitory activity of serum (fold of IC50; highest dilution-fold of serum causing 50% inhibition): about 4500 fold
  serum inhibitory activity maintained for 15 h post-injection (fold of IC50): > 275 fold
  time of maximum serum inhibitory activity post-injection: about 3 h
[4]; [9]
  AUC0-15h: 14900 ± 3800 ng·h/mL
  AUCINF_obs: 15000 ± 3700 ng·h/mL
  Cl_F_obs/Cl_obs: 5.773 ± 1.27 mL/min/kg
  Cmax: 2200 ± 100 ng/mL
  MRTlast: 9.5 ± 5.1 h
  Tmax: 4.0 ± 1.7 h
  Vz_F_obs/Vz_obs: 2.7388 ± 0.7407 L/kg
  t½: 5.9 ± 3.2 h
[4]; mice, i.p.
  fold longer serum half-life than HP23-E6-IDL: ~5.9 fold
MT-2 cells; 8 μM versus IC50 against HIV-1IIIB
  non-cytotoxic concentration (8 μM) relative to IC50 for inhibiting HIV-1IIIB infection: about 105 fold
MT-2 cells; [10]
  in vitro cytotoxicity to MT-2 cells: none of these peptides exhibited in vitro cytotoxicity
M7 cells; 8 μM versus IC50 against HIV-1Bal
  non-cytotoxic concentration (8 μM) relative to IC50 for inhibiting HIV-1Bal infection: ~131 fold
M7 cells; [10]
  in vitro cytotoxicity to M7 cells: none of these peptides exhibited in vitro cytotoxicity
[5]
  fold more effective than HP23-E6-IDL against infection by HIV-1 mutants resistant to T20, T2635 and HP23: about 16 fold
[6]
  fold more potent than HP23-E6-IDL for inhibiting infection by HIV-1 T20-resistant strains: about 12 fold
[7]
  fold more potent than HP23-E6-IDL for inhibiting infection by HIV-1 T2635-resistant strains: about 12 fold
[8]
  fold more potent than HP23-E6-IDL for inhibiting infection by HIV-1 HP23-resistant strains: ~26 fold
